Results from patent US12152038B2, “Vasopressin receptor antagonists and products and methods related thereto” (Neumora Therapeutics, Inc., priority 2017, dated 2024).
Where two headings read alike, the source gives them in different places.

Target: T1, MDR1 (P-glycoprotein) (Homo sapiens, UniProt P08183)
T1 construct: host or cells: MDCK (MDR1-MDCK; wild-type MDCK as comparator)
Test: MDR1-MDCK permeability and efflux assay (Papp, efflux ratio, effective efflux ratio)
Assay type: in vitro ADME
Details: dog; for Papp A→B at 1 h, 10 μM: pH 7.4, read-out: Papp AB MDR1
In short: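 Bidirectional transport measured over 1 h at 37 °C with 10 μM test compound (0.1% DMSO) in pH 7.4 HEPES-buffered HBSS across MDR1-transfected and wild-type MDCK monolayers, analysed by LC-MS/MS. Efflux ratio is B>A over A>B Papp; effective efflux ratio divides MDR1-MDCK ER by wild-type ER.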

[1] = MDCK-MDR1, pH 7.4, ER(MDR1-MDCK)/ER(wild-type MDCK), read-out: EER (Effective Efflux Ratio)
[2] = MDCK-MDR1, pH 7.4, Papp B>A/Papp A>B, MDR1-MDCK cells, read-out: ER MDR1 (Efflux Ratio)

T1 sequence (P08183 whole entry): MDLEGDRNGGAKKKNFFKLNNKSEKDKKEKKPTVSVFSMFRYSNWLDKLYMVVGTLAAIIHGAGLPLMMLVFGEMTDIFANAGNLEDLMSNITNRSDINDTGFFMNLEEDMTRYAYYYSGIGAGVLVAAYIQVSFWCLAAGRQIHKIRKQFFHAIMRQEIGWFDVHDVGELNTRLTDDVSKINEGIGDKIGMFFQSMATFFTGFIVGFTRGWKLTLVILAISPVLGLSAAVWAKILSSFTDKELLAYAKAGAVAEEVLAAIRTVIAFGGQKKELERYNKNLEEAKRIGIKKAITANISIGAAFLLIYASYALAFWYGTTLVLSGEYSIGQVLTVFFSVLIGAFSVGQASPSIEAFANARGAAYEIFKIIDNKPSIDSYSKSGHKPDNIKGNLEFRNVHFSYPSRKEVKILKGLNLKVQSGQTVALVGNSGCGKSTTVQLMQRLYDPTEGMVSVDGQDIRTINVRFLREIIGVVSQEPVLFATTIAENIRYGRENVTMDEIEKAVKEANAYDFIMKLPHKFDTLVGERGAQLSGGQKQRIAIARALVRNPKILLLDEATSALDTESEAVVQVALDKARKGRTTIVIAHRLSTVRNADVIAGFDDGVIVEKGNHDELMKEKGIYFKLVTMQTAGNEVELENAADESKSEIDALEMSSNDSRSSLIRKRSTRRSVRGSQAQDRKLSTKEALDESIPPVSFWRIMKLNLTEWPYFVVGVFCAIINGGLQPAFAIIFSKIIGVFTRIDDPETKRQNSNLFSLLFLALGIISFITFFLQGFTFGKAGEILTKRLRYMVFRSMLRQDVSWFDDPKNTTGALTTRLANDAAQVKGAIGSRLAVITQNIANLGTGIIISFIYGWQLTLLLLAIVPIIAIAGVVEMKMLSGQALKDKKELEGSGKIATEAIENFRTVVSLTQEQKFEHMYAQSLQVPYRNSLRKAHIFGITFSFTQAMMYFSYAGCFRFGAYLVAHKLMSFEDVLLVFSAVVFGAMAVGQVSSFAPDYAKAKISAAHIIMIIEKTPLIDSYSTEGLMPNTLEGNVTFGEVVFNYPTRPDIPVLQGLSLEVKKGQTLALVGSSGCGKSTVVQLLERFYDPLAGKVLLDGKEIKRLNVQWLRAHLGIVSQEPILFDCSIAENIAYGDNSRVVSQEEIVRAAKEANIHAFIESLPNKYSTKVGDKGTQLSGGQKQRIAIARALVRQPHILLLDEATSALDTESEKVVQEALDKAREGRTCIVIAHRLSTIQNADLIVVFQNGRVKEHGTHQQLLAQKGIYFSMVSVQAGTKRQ

Row | Structure (SMILES) | efflux ratio at 1 h, 10 μM [1] | efflux ratio at 1 h, 10 μM [2] | Papp A→B at 1 h, 10 μM (MDR1-MDCK cells) [×10⁻⁶ cm/s]
1 | CC1COc2cc(Cl)ccc2N1C(=O)N1CC2(C1)CN(c1cnccn1)C2 (single isomer, unassigned) [1-58-B] | 1 to 2 | 1 to 2 | > 20
2 | COc1ccc2c(c1)OCC(C)N2C(=O)N1CC2(C1)CN(c1ccc(F)cn1)C2 (single isomer, unassigned) [1-59-B] | 1 to 2 | 1 to 2 | > 20
3 | CC1COc2cc(Cl)ccc2N1C(=O)N1CC2(C1)CN(c1ccccn1)C2 (single isomer, unassigned) [1-60-B] | 1 to 2 | < 1 | > 20
4 | CC1COc2cc(F)ccc2N1C(=O)N1CC2(C1)CN(c1cnccn1)C2 (single isomer, unassigned) [1-65-B] | < 1 | 1 to 2 | > 20
5 | CC1COc2cc(Cl)ccc2N1C(=O)N1CC2(C1)CN(c1ncc(F)cn1)C2 (single isomer, unassigned) [18-2-B] | < 1 | < 1 | > 20
6 | Cc1cnc(N2CC3(CN(C(=O)N4c5ccc(Cl)cc5OCC4C)C3)C2)nc1 (single isomer, unassigned) [20-13-B] | 1 to 2 | 1 to 2 | > 20
7 | CC1COc2cc(Cl)ccc2N1C(=O)N1CC2(C1)CN(c1nn(C)c3ncccc13)C2 (single isomer, unassigned) [20-15-B] | 1 to 2 | < 1 | > 20
8 | O=C(N1CC2(C1)CN(c1cnc(F)cn1)C2)N1CCOc2cc(Cl)ccc21 [1-18] | < 1 | < 1 | > 20
9 | Cc1cncc(N2CC3(CN(C(=O)N4CCOc5cc(Cl)ccc54)C3)C2)n1 [1-22] | 1 to 2 | 1 to 2 | > 20
10 | CC1COc2cc(Cl)ccc2N1C(=O)N1CC2(C1)CN(c1ccccn1)C2 (stereo not drawn) [1-60] | < 1 | < 1 | > 20
11 | O=C(N1CC2(C1)CN(c1ccc(F)cn1)C2)N1CCOc2cc(F)ccc21 [1-64] | 1 to 2 | 1 to 2 | > 20
12 | O=C(N1CC2(C1)CN(c1cc(F)ccn1)C2)N1CCOc2cc(Cl)ccc21 [1-70] | < 1 | 1 to 2 | > 20
13 | O=C(N1CC2(C1)CN(c1cccnn1)C2)N1CCOc2cc(Cl)ccc21 [1-71] | > 3 | 1 to 2 | > 20
14 | O=C(N1CC2(C1)CN(c1cccnc1)C2)N1CCOc2cc(Cl)ccc21 [1-72] | 1 to 2 | < 1 | > 20
15 | CC1COc2cc(Cl)ccc2N1C(=O)N1CC2(C1)CN(c1noc3ccccc13)C2 (stereo not drawn) [21-1, (6-(benzo[d]isoxazol-3-yl)-2,6-diazaspiro[3.3]heptan-2-yl)(7-chloro-3-methyl-2,3-dihydro-4H-benzo[b][1,4]oxazin-4-yl)methanone] | 2 to 3 | 1 to 2 | 7 to 10
16 | CC1COc2cc(Cl)ccc2N1C(=O)N1CC2(C1)CN(c1ncccc1C#N)C2 (stereo not drawn) [21-2] | 1 to 2 | 1 to 2 | > 20
17 | Cc1cncc(N2CC3(CN(C(=O)N4c5ccc(Cl)cc5OCC4C)C3)C2)n1 (stereo not drawn) [21-3] | 1 to 2 | 1 to 2 | > 20
18 | Cc1cnnc(N2CC3(CN(C(=O)N4c5ccc(Cl)cc5OCC4C)C3)C2)c1 (stereo not drawn) [21-4] | > 3 | > 3 | > 20
19 | CC1COc2cc(Cl)ccc2N1C(=O)N1CC2(C1)CN(c1ncncc1F)C2 (stereo not drawn) [21-5] | < 1 | 1 to 2 | > 20
20 | CC1COc2cc(Cl)ccc2N1C(=O)N1CC2(C1)CN(c1ccncn1)C2 (stereo not drawn) [21-6] | 2 to 3 | < 1 | > 20
21 | Cc1nccc(N2CC3(CN(C(=O)N4c5ccc(Cl)cc5OCC4C)C3)C2)n1 (stereo not drawn) [21-8] | 2 to 3 | 1 to 2 | > 20
22 | CC1COc2cc(Cl)ccc2N1C(=O)N1CC2(C1)CN(c1nccc(C(F)(F)F)n1)C2 (stereo not drawn) [21-10] | 1 to 2 | 1 to 2 | 10 to 20
